Here are results for one compound from paper PMC6546350 (RNA Biology, 2019).

Molecules are shown by their SMILES.

The assay concerns the target T1, RlmJ (Escherichia coli, UniProt P37634).
T1 sequence (P37634 1-280): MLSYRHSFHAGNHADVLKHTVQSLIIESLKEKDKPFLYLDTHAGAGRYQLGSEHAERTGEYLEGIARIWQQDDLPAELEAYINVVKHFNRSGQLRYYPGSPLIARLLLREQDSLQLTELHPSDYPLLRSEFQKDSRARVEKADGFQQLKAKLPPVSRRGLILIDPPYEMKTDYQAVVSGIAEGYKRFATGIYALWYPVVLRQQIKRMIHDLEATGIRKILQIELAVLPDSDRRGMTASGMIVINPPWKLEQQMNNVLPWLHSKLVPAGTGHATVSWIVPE
Description: ITC and DSF. Format: binding.

Turning to `Nc1ncnc2c1ncn2[C@@H]1O[C@H](C[C@@H](N)CC[C@H](N)C(=O)O)[C@@H](O)[C@H]1O` [sinefungin], the affinity, expressed as Kd, was 1.7 ± 0.2 µM.
